The source of these data is patent US20060216693A1, “Method of screening compounds which inhibit the initiation of the retrotranscription of the rna of virus hiv-1 and means for implementing same” (priority 2003, published 2006).

The subject of assay [1] is HIV-1 reverse transcriptase. As to conditions: 5 μM inhibitor, 5 μM each dNTP, 30 minute-reaction, 37° C.
Assay [2] has as its target HIV-1 reverse transcriptase (Human immunodeficiency virus type 1 group M subtype B, UniProt P04585). As to conditions: selectivity measured in initiation and elongation (Rigourd and al., 2000); cited from earlier work.
Assay [3] relates to HIV-1 reverse transcriptase. Nature of the assay: Synthesis of product corresponding to reverse transcription initiation (addition of first 6 nucleotides to biotinylated tRNAHis primer), scintillation proximity assay. Particulars: calculated. Format: biochemical. How it is done:
FIG. 7: (−) Synthesis of a Product Corresponding to Retrotranscription Initiation from Biotinylated vRNA complex [His-AC-GAC]/tRNA^His
The signal attenuation is detected with […] of AZTTP. The numbers in bold and italic on the top of histograms corresponds to the percent of residual signal compared to the control without inhibitor.
Reactions are stopped by adding EDTA 25 mM and extension product detection is performed as previously described.

Several values for one entry are separate records, joined by “and”; a condition that tells them apart may be missing. Identical values can stand only once.

For `Cc1cn([C@H]2C[C@H](N=[N+]=[N-])[C@@H](CO[P@](=O)(O)O[P@](=O)(O)OP(=O)(O)O)O2)c(=O)[nH]c1=O` [AZTTP], in assay [1], the “inhibition rate of (−) strand strong-stop DNA synthesis” value is given as “about 90%”. In assay [2], the “AZTTP incorporation selectivity against dTTP” value is 0.6 and 0.7. Moreover, the Theoretical signal in assay [3] ([dTTP]/[AZTTP] = 2, selectivity (AZTTP/dTTP) = 0.6) is given as 60.7%; in assay [3] ([dTTP]/[AZTTP] = 2, selectivity (AZTTP/dTTP) = 0.7) it was 56.7%; in assay [3] ([dTTP]/[AZTTP] = 50, selectivity (AZTTP/dTTP) = 0.6), 97.7%; in assay [3] ([dTTP]/[AZTTP] = 50, selectivity (AZTTP/dTTP) = 0.7) it was 97.3%.
Turning to `Cc1cn([C@H]2C=C[C@@H](COP(=O)(O)OP(=O)(O)OP(=O)(O)O)O2)c(=O)[nH]c1=O` [d4TTP], the “inhibition rate of (−) strand strong-stop DNA synthesis” value in assay [1] is listed as 80%.
